These results are taken from paper PMC3425833, “Synthesis, Urease Inhibition, Antioxidant, Antibacterial, and Molecular Docking Studies of 1,3,4-Oxadiazole Derivatives” (ISRN Pharmacology, 2012).

Structures are written as SMILES. ≈ marks a conversion by molar mass, not a printed value. Like-named read-outs stand apart in the source and are kept apart here.

The subject of assay [1] is Shigella flexneri. Kind of assay: Antibacterial activity, serial tube dilution MIC. It counts as cell-based. To be noted: for MIC: Shigella flexneri, average of three readings, 24 h at 37°C, read-out: MIC S. flexneri; for Antibacterial activity against S. flexneri compared to standard ciprofloxacin: in words. As for the experimental part:
(§1) The antibacterial activity data is represented in Table 2. […] Ciprofloxacin was used as standard drug. The compounds were found active against bacterial strains (2 Gram positive bacteria, namely, Staphylococcus aureus, Bacillus subtilis, and 2 Gram negative bacteria namely Escherichia coli, Shigella flexneri) in variable concentration. The antibacterial activities of 1,3,4-oxadiazole derivatives were evaluated in vitro by serial tube dilution method. The compounds and standard drug ciprofloxacin were dissolved in N,N-dimethylformamide (DMF) to give a concentration of 5 μg/mL (stock solution). Necessary apparatus and test tubes set of capacity 5 mL was washed cleaned and completely dried. For the bacterial culture double strength nutrient broth was used. The culture media was made by dissolving 15 g of nutrient broth in 1 L of distilled water. Approximately, 1 mL of culture media was prepared and transferred to each test tube by micropipette and capped with non-adsorbent cotton plugs. The test tubes containing 1 mL culture media was sterilized in an autoclave at 121°C for 20 min at 15 psi pressure. Sub-culturing of bacteria was done by transferring a loopful of particular bacterial strain from standard bacterial agar to 10 mL sterilized nutrient broth aseptically in a laminar air flow cabinet. It was then incubated for a period of 24 h at 37°C in a B. O. D. incubator. Bacterial strain suspension was prepared, after 24 h incubation, by aseptically inoculating 0.2 mL of revived bacterial colony into 100 mL of 0.9% m/v saline. A series of 5 assay tubes for a single derivative against each bacterial strain was employed. A stock solution of each test derivative at concentration 5 μg/mL (containing 1 mL nutrient broth) was serially diluted to achieve concentrations of 2.5, 1.25, 0.625, 0.313, and 0.156 μg/mL. Then, 0.1 mL of normal saline suspension of revived bacteria was added to each test tube. The inoculated tubes were incubated at 37°C for 24 h. The MIC (minimum inhibitory concentration) values were determined by subsequently checking for the absence of visual turbidity.

The subject of assay [2] is Staphylococcus aureus. Nature of the assay: Antibacterial activity, serial tube dilution MIC. In kind it is cell-based. Particulars: for MIC: Staphylococcus aureus, read-out: MIC S. aureus. As to the method:
as §1

In assay [3] the test system is Bacillus subtilis. Nature of the assay: Antibacterial activity, serial tube dilution MIC. To be noted: for MIC: Bacillus subtilis, read-out: MIC B. subtilus. It counts as cell-based. As for the experimental part: as §1
The subject of assay [4] is Escherichia coli. Nature of the assay: Antibacterial activity, serial tube dilution MIC. It counts as cell-based. To be noted: for MIC: Escherichia coli, 24 h, average of three readings, 24 h at 37°C, read-out: MIC E. coli. As for the experimental part: as §1
The target of assay [5] is Jack bean urease (Canavalia ensiformis, UniProt P07374). Kind of assay: biochemical. It counts as biochemical.
Jack bean urease, sequence (P07374 whole entry, looked up): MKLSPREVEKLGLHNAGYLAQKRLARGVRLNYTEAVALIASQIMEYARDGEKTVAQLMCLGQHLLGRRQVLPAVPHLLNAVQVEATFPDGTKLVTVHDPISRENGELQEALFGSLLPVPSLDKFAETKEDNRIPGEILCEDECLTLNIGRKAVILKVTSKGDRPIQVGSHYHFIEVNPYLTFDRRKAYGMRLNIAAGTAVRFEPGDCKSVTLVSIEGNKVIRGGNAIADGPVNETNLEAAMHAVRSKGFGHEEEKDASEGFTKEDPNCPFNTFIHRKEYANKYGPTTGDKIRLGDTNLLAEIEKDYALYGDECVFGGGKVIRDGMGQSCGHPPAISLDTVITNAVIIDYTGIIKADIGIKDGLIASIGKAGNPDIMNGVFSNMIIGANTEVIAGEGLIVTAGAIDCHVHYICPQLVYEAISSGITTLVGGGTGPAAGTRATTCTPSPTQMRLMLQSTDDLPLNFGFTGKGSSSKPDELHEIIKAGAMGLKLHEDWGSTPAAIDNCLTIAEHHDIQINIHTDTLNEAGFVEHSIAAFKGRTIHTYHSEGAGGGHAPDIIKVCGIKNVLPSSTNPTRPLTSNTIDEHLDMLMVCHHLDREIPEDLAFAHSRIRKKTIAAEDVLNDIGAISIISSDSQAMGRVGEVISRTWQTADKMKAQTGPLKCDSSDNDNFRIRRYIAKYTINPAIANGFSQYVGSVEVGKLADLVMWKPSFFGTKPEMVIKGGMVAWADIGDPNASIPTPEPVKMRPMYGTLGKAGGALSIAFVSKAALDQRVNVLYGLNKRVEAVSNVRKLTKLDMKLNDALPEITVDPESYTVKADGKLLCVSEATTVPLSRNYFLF
The nature of assay [6]: DPPH radical scavenging (antioxidant) assay. Particulars: DPPH 300 μM, half an hour at 37°C. As for the experimental part: The free radical scavenging capacity of the compounds was measured by 1,1-diphenyl-2-picrylhydrazyl. Test compounds were allowed to react with stable free radical, 1,1-diphenyl-2-picrylhydrazyl radical (DPPH) for half an hour at 37°C. The concentration of DPPH was kept as 300 μM. The test samples were dissolved in DMSO while the DPPH solution was prepared in ethanol. After incubation, decrease in absorption was measured at 515 nm using microplate reader. Percent radical scavenging activity of samples was determined in comparison with a DMSO treated as control. Propyl gallate and 3-tert-Butyl-4-hydroxyanisole were used as standards.

[7] abbreviates: average of three readings, 24 h at 37°C.

Take `S=c1[nH]nc(Cc2ccc(Cl)cc2Cl)o1` [Compound 4h, 5-(2,4-Dichlorobenzyl)-1,3,4-oxadiazole-2(3H)-thione]: the minimal inhibitory concentration (MIC) in assay [1] is 0.156 µg/mL (≈ 0.597 µM); in assay [2] (setting [7]) it was 0.625 µg/mL (≈ 2.39 µM); in assay [3] (24 h), 0.156 µg/mL (≈ 0.597 µM); in assay [4] it was 1.25 µg/mL (≈ 4.79 µM). Further, the “Antibacterial activity against S. flexneri compared to standard ciprofloxacin” value in assay [1] is “two-fold activities”. For the same compound, the “Antibacterial activity against B. subtilus relative to ciprofloxacin” value in assay [3] came to 4 fold. Besides, the “Antibacterial activity against E. coli compared to standard ciprofloxacin” value in assay [4] (in words) is listed as “considerably less active”. In addition, the half-inhibitory concentration (IC50) in assay [5] was found to be 42.4 ± 1.2 µM; in assay [6], 57.8 ± 1.8 µM. For the same compound, the “Urease inhibitory activity in words” value in assay [5] (qualitative statement) is recorded as “weak inhibitory activities”.

Take `COc1cccc(CCc2n[nH]c(=S)o2)c1` [Compound 4o, 5-(3-Methoxyphenethyl)-1,3,4-oxadiazole-2(3H)-thione]: the minimal inhibitory concentration (MIC) stood at 0.156 µg/mL (≈ 0.66 µM) in assay [1], 2.5 µg/mL (≈ 10.6 µM) in assay [2] (setting [7]), 0.625 µg/mL (≈ 2.64 µM) in assay [3] (setting [7]) and 0.313 µg/mL (≈ 1.32 µM) in assay [4]. Further, the “Antibacterial activity against S. flexneri compared to standard ciprofloxacin” value in assay [1] is recorded as “two-fold activities”. Further, the IC50 in assay [5] was 15.1 ± 0.8 µM; in assay [6], 43.6 ± 3.1 µM.

As for `COc1cccc(Cc2n[nH]c(=S)o2)c1` [Compound 4n, 5-(3-Methoxybenzyl)-1,3,4-oxadiazole-2(3H)-thione], the MIC in assay [1] worked out at 0.156 µg/mL (≈ 0.702 µM); in assay [2] (24 h) it was 0.156 µg/mL (≈ 0.702 µM); in assay [3] (24 h), 0.156 µg/mL (≈ 0.702 µM); in assay [4], 0.625 µg/mL (≈ 2.81 µM). Also, the “Antibacterial activity against S. flexneri compared to standard ciprofloxacin” value in assay [1] is on record as “two-fold activities”. The “Antibacterial activity against S. aureus compared to standard ciprofloxacin” value in assay [2] (in words) was “equipotent activity”. Besides, the “Antibacterial activity against B. subtilus relative to ciprofloxacin” value in assay [3] came to 4 fold. In addition, the IC50 in assay [5] came out at 12.2 ± 0.05 µM; in assay [6], 60.3 ± 4.3 µM.

The MIC is the lowest concentration found to suppress growth. One may read the IC50 as the midpoint of a concentration-inhibition curve. High values mean a need for much substance, low ones inhibition by little substance.
